Reference: US11840521B2, “Modulators of Mas-related G-protein receptor X4 and related products and methods” (Escient Pharmaceuticals, Inc., priority 2019, dated 2023)
Entries after “also recorded” stand apart in the source; their conditions may differ. Like-named read-outs stand apart in the source and are kept apart here.

Assays:
[1] = target: T1, MRGPRX4 (Homo sapiens, UniProt Q96LA9); assay: In vitro activation (agonism) of MRGPRX4, IP-One Gq HTRF assay; format: cell-based
Procedure: Metabolites of heme (bilirubin, biliverdin, urobilin, urobilinogen, and stercobilin) were analyzed for in vitro activation of MRGPRX4. Cells were plated in a 384-well assay plate at 20,000 cells per well in 12 μL of Opti-MEM and kept in an incubator overnight. On the day of the assay, different agonists solubilized at 10 mM in 0.1% NaOH were added as a 10-point curve ([…] final top concentration with 1:3 serial dilutions) using a Tecan D300E digital dispenser. Agonists were diluted in assay buffer (final concentrations of 5.7 mM Tris-HCl, 43 mM NaCl, 50 mM LiCl, pH=8) and 2 μL of the appropriate agonist are added to each well. Plates were incubated in the dark for 1 h at 37° C. and then for 30 minutes at room temperature. IP-1 standards and HTRF detection reagents were added according to the IP-One—Gq Kit purchased from Cisbio (part number 62IPAPEJ) and incubated in the dark for 1 h at room temperature. The plate was read on a Molecular Devices SpectraMax iD5 plate reader. The HTRF ratio was calculated from the raw data and graphed using GraphPad Prism to calculate an IC50 value for each compound.

[2] = Mouse pharmacokinetics study, 50 mg/kg oral gavage, plasma LC-MS/MS; format: in vivo; details: male C57BL/6 mice, non-fasted
Procedure: Compounds were formulated in 5% DMSO, 5% Solutol, and […] phosphate buffered saline at a concentration of 5 mg/mL, and typically appeared as a fine homogenous suspension. Male C57BL/6 mice (n=3/compound) were administered a 50 mg/kg dose of each compound by oral gavage under a non-fasted condition. Blood samples were collected via the saphenous vein onto K2-EDTA at 0.25, 0.5, 1, 2, 4, 8 and 24 hours after dosing, and plasma was prepared and stored at […] until analysis. Plasma sample preparation for analysis was done by protein precipitation using acetonitrile (including Celecoxib as an internal standard) followed by centrifugation. Compound concentrations were determined in extracted plasma using LC-MS/MS relative to an 8 point standard curve covering the 1 to 3000 ng/mL range. Non-compartmental analysis using Phoenix WinNonlin was used to estimate pharmacokinetic parameters including area under the curve, clearance, and half-life. The administered dose was confirmed by analysis of residual dosing material by UPLC-UV relative to a single point calibration sample.

[3] = target: T1, MRGPRX4; assay: MRGPR X4 antagonist activity, IP-One Gq HTRF assay in stably transfected HEK cells (versus agonist bilirubin, deoxycholic acid, conjugated bilirubin, urobilin, obeticholic acid or BAR502); format: cell-based; parameters: expressed in transfected cells; host or cells: HEK cells, stably transfected
Outline: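 Stably transfected HEK cells expressing human MRGPR X4, seeded overnight, given compounds as 10-point 1:3 curves from 10 uM final top, incubated 1 h at 37° C then 30 min at room temperature. IP-1 measured by IP-One Gq HTRF. IC50 derived from the HTRF ratio.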

[4] = system: wild type mice; assay: Mouse itch study, scratching bouts after subcutaneous pruritogen (SCLABA); format: in vivo; details: SC injection on the neck, 30 min recording, FIG. 2A-2B
Procedure: The ability of urobilin to induce itch in wild type mice was also tested. Typical mouse itch studies occurred as follows: C57B6J male mice were multiple-housed in a normal light cycle (6 am on; […]) under temperature and humidity-controlled conditions. The mice were handled and habituated to test chambers before testing, then placed in individual SCLABA test chambers. After 20 minutes, the mice were dosed PO with vehicle (saline, pH 7-8). After 30 minutes, the pruritogen of study ([…] in saline) or saline is given subcutaneously (SC) on the neck on the midline behind the ears. Video was recorded from the first pruritogen injection for 30 minutes using the SCLABA system. Scratching bouts were scored from SCLABA thumbnails using 12/45/85/100 waveform criteria. Group sizes were typically 9-10 animals per group.

[5] = target: T1, MRGPRX4; assay: Agonism of MRGPRX4 by bilirubin and urobilin samples after 24 h storage; format: cell-based; details: 24 h at room temperature under blue light; FIG. 4B
Procedure: Samples were evaluated after 24 hours and the percent remaining of urobilin and bilirubin, relative to a time zero standard, were determined by measurement of the degradation of the analyte contained in the samples as determined by tandem mass spectroscopy (LC MS/MS). The samples (at 24 h) were also evaluated for their ability to agonize MRGPRX4.

[6] = read-out: IC50 (10 μM BAR502) nM, MRGPRX4 antagonists versus 10 μM BAR502 agonist
[7] = versus 10 μM Bilirubin agonist, HEK cells expressing human MRGPR X4, read-out: MRGPR4 Antagonist Activity
[8] = versus 10 μM Bilirubin agonist, read-out: IC50 (Bilirubin agonist)
[9] = versus 20 μM deoxycholic acid, read-out: IC50 (Deoxycholic Acid agonist)
[10] = versus 20 μM obeticholic acid, read-out: IC50 (Obeticholic Acid Agonist)
[11] = versus 50 μM urobilin, read-out: IC50 (Urobilin Agonist)
[12] = versus 100 μM conjugated bilirubin, read-out: IC50 (Conjugated Bilirubin Agonist)

T1 sequence (Q96LA9 whole entry): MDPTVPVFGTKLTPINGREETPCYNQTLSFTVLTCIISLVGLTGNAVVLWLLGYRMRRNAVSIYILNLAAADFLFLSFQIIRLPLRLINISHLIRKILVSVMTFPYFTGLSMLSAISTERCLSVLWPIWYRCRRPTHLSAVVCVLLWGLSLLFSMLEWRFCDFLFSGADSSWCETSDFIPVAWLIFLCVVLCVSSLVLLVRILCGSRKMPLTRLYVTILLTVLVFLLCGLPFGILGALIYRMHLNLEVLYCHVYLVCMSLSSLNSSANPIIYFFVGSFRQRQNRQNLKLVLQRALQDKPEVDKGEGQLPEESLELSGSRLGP

SMILES	EC50 ([1]; read-out: agonist activity against MRGPRX4) [nM]	AUC [2] [μMxhr]	Cmax [2] [µM]	T-1/2 [2] [h]	IC50 [3, 6] [nM]	IC50 [3, 7] [nM]	IC50 [3, 8] [nM]	IC50 [3, 9] [nM]	IC50 [3, 10] [nM]	IC50 [3, 11] [nM]	IC50 [3, 12] [nM]	efficacy at activating MRGPRX4 relative to bilirubin ([1]; FIG. 1, compared with bilirubin)	induction of scratch response in mice [4]	agonist activity on MRGPRX4 after storage, relative to the other three groups [5]
CC[C@H]1[C@@H](O)[C@@H]2[C@H](CC[C@]3(C)[C@@H]([C@H](C)CCO)CC[C@@H]23)[C@@]2(C)CC[C@@H](O)C[C@@H]12 [BAR502]	5700	–	–	–	–	–	–	–	–	–	–	–	–	–
O=C(O)c1cccc(COc2ccc(C(F)(F)F)cc2Cl)c1F [Compound 1-55, 3-((2-chloro-4-(trifluoromethyl)phenoxy)methyl)-2-fluorobenzoic acid]	–	2150	230	11.2	16	< 100	6	22	11	23	14	–	–	–
O=C(O)c1cccc(COc2ccc(C(F)(F)F)cc2Cl)n1 [Compound 1-56, 6-((2-chloro-4-(trifluoromethyl)phenoxy)methyl)picolinic acid]	–	880	162	3.2	16	< 100	28	30	24	21	32	–	–	–
O=C(O)c1cc(F)cc(COc2ccc(C(F)(F)F)cc2Cl)c1 [Compound 1-65, 3-((2-chloro-4-(trifluoromethyl)phenoxy)methyl)-5-fluorobenzoic acid]	–	1037	220	4.8	13	< 100	9	28	23	21	17	–	–	–
O=C(O)c1cccc(COc2ccc(Cl)c(Cl)c2Cl)c1 [Compound 1-78]	–	219	57	4.0	20	< 100	7	24	21	13	24	–	–	–
O=C(O)c1cc(COc2ccc(C(F)(F)F)cc2Cl)ccc1F [Compound 1-85, 5-((2-chloro-4-(trifluoromethyl)phenoxy)methyl)-2-fluorobenzoic acid]	–	1069	239	4.7	–	< 100	20	30	15	41	29	–	–	–
O=C(O)c1cccc(COc2ccc(Cl)cc2Cl)n1 [Compound 1-115]	–	1206	306	3.0	–	< 100	81	230	47	–	180	–	–	–
O=C(O)c1cccc(COc2ccc(Cl)cc2Cl)c1F [Compound 4-1, 3-((2,4-dichlorophenoxy)methyl)-2-fluorobenzoic acid]	–	1503	231	5.9	–	< 100	27	55	–	–	81	–	–	–
Cc1cc(COc2ccc(C(F)(F)F)cc2Cl)cc(C(=O)O)c1 [Compound 4-10, 3-((2-chloro-4-(trifluoromethyl)phenoxy)methyl)-5-methylbenzoic acid]	–	974	260	4.6	–	< 100	16	22	15	35	21	–	–	–
Cc1cc(COc2ccc(C(F)(F)F)cc2C)cc(C(=O)O)c1 [Compound 4-11]	–	572	257	3.6	–	< 100	24	63	25	35	41	–	–	–
CCc1cc(COc2ccc(C(F)(F)F)cc2Cl)nc(C(=O)O)c1 [Compound 42-3]	–	4700	460	5.4	17	< 100	16	16	7	21	28	–	–	–
CCC1=C(C)C(CC2=N/C(=C\c3[nH]c(CC4NC(=O)C(C)=C4CC)c(C)c3CCC(=O)O)C(CCC(=O)O)=C2C)NC1=O (stereo not drawn) [Urobilin, urobilin]	–	–	–	–	–	–	–	–	–	–	–	at least 10 fold	induced scratch response in mice in a dose dependent manner; also recorded: potent inducer of scratch response in mice	very little agonist activity
